Data from US20160113960A1, “TOPICAL PREPARATIONS COMPRISING HYALURONIC ACID, VERBASCOSIDE AND GLYCEROPHOSPHOINOSITOL” (ALTERGON S.A., priority 2013, published 2016).

Key:
[1] = spectrophotometric test with 2,2-diphenyl-1-picrylhydrazyl (DPPH), radical scavenging activity; assay type: biochemical; conditions: for radical scavenging activity (in words): DPPH test, summary of Tables 1 and 2
Procedure: Evidence of the radical scavenging activity of the main ingredients of the formulations prepared, VB, HANa, GPI, were obtained with in vitro tests.
The anti-radical activity of VB alone and in combination with HANa and GPI was analyzed by spectrophotometric test with 2,2-diphenyl-1-picrylhydrazyl (DPPH). The samples were prepared respecting the proportions provided in the formulation.

[2] = titre of components in the muco-adhesive solution on storage at room temperature; assay type: physicochemical
[3] = storage stability of verbascoside with and without water; assay type: physicochemical
Text: Therefore, in a more preferred embodiment, the ternary association of the invention is formulated in dry form or with liquid or semi-solid anhydrous ingredients. If the final formulation requires one or more aqueous ingredients, verbascoside is preferably packaged separately in conditions of absence of water (or in the dry state or with semi-solid/liquid anhydrous ingredients) and stored in that form; a preferred semi-solid form is represented by glycerogel, or gelled semi-solid and non hydrated forms with a glycerin base; upon use, verbascoside is combined with the aqueous components, obtaining the final aqueous formulation, ready for administration. The separate packaging of the above ingredients is achievable by generally known means, e.g. double chamber bags, twin-bag double chamber dispensers, etc.

[4] = biological target: T1, iNOS (inducible nitric oxide synthase) (Homo sapiens, UniProt P35228); conditions: THP-1 cells stimulated with LPS and IFN-γ; cited from earlier work
T1 construct: human THP-1 leukemia cells stimulated with pro-inflammatory stimuli (e.g. LPS and IFN-γ) in which the activity of iNOS is overexpressed; endogenous in cells; host or cells: human THP-1 leukemia cells stimulated with LPS and IFN-γ

[5] = system: inflammatory chemokines such as GM-GCSF, IL-8, IP-10 and MCP-1; conditions: human keratinocytes stimulated with TNFα or IFN-γ; cited from earlier work
periodontitis model = conditions: rats, cited from earlier work
[6] = muco-adhesive solution of Example 6
[7] = muco-adhesive solution of Example 7, solution pH 4.4, viscosity 145 mPas s
[8] = muco-adhesive solution of Example 8, solution pH 4.4, viscosity 60 mPas s
[9] = muco-adhesive solution of Example 9, iota carrageenan solution, pH 4.3

Compound	radical scavenging activity (in words) [1]	% titre at 30 days at room temperature [2, 6] [%]	Initial % titre [2, 6] [%]	% titre at 10 days at room temperature [2, 7] [%]	Initial % titre [2, 7] [%]	% titre at 10 days at room temperature [2, 8] [%]	Initial % titre [2, 8] [%]	% titre at 30 days at room temperature [2, 9] [%]	Initial % titre [2, 9] [%]	also measured
O=P(O)(OC[C@H](O)CO)OC1[C@H](O)[C@H](O)C(O)[C@H](O)[C@H]1O (stereo partly drawn) [GPI, Inositol glycerophosphate]	essentially showed no activity	98.2	99.5	102.88	99.63	102.24	98.17	100.8	100.6	Radical scavenging activity (%) ([1]; concentration 78 mg/L): 1%
C[C@@H]1O[C@@H](O[C@@H]2[C@@H](O)[C@H](OCCc3ccc(O)c(O)c3)O[C@H](CO)[C@H]2OC(=O)/C=C/c2ccc(O)c(O)c2)[C@H](O)[C@H](O)[C@H]1O [VB, Verbascoside]	clear	92.5	99.6	98.71	101.68	98.55	102.2	92.9	101.7	stability ([3]; in an aqueous medium): particularly labile; stability upon storage ([3]; stored in the absence of water): particularly stable; expression and activity of iNOS and superoxide radicals [4]: significant decrease; Radical scavenging activity (%) ([1]; VB concentration 3.3 μM (2.1 mg/L)): 15%; Radical scavenging activity (%) ([1]; VB concentration 6.6 μM (4.1 mg/L)): 24%; Radical scavenging activity (%) ([1]; VB concentration 13.2 μM (8.3 mg/L)): 42%; Radical scavenging activity (%) ([1]; VB concentration 26.5 μM (16.6 mg/L)): 76%; Radical scavenging activity (%) ([1]; VB concentration 53 μM (33.1 mg/L)): 95%; Radical scavenging activity (%) ([1]; concentration 15.6 mg/L): 74%; inflammatory chemokines such as GM-GCSF, IL-8, IP-10 and MCP-1 [5]: reduces in a dose-dependent manner; parameters of inflammation (periodontitis model; oral administration 2 mg/kg/day for 8 days): significantly reduces; anti-inflammatory effect (periodontitis model; periodontitis model): marked anti-inflammatory effect; time for which a high titre is maintained ([2]; after extemporaneous incorporation with the aqueous component, room temperature): at least 30 days
Hyaluronic acid sodium salt [HANa]	essentially showed no activity	100.7	101.3	96.26	99.32	96.26	98.48	114.9	114.6	Radical scavenging activity (%) ([1]; concentration 62.4 mg/L): 1%
